≈ marks a conversion by molar mass, not a printed value. Where two headings read alike, the source gives them in different places.
Assays:
Type in all cases: physicochemical
[1] = Determination of solubility in conventional solvents, visual inspection method; conditions: thermodynamic from solid, 25° C.
Description: If the sample is still not dissolved at a specific concentration, its solubility is expressed as “<specific concentration”;

[2] = Thermodynamic stability experiment in solvents at 60° C. (XRD); conditions: one day
Description: The crystalline form 1, crystalline form 2, crystalline form 3 and crystalline form 7 of the compound of formula I were mixed with acetone, ethyl acetate, methanol, water and tetrahydrofuran respectively, and then kept at 60° C. for one day for the investigation of the thermodynamic stability of each crystalline form. Insoluble solid was recovered by filtration and analyzed by XRD. Analysis conditions: Shimadzu XRD-6000, CuK source (1.54056 A) 40 kV, 30 mA; detection angle: 5-50°, speed: 5°/min.

[3] = Dissolution rate of crystalline forms 1 and 2
Description: The moisture content, solubility and dissolution rate of the crystalline forms 1 and 2 were detected using the methods described above. The results are shown in Table 21, which indicate that the solubility, dissolution, and moisture content (total pharmaceutical properties) of the crystalline form 1 are higher than that of the crystalline form 2. Moreover, the crystalline forms 1 and 2 have the highest solubility in methanol.

Cc1[nH]c(/C=C2\C(=O)Nc3ccc(F)cc32)c(C)c1C(=O)N[C@H]1CCN(C(=O)N(C)C)C1 [crystalline form 1, 5-[5-fluoro-2-oxo-1,2-dihydro-indole-(3Z)-ylidenemethyl]-2,4-dimethyl-1H-pyrrole-3-carboxylic acid ((S)-1-dimethylcarbamoyl-pyrrolidin-3-yl)-amide]
Solubility ([1]; acetone, organic solvent or mixture, read-out: solubility in acetone): 1000 to 2500 µg/mL (≈ 2280 to 5690 µM)
Solubility ([1]; acetonitrile, organic solvent or mixture, read-out: solubility in acetonitrile): < 1000 µg/mL
Solubility ([1]; ethanol, organic solvent or mixture, read-out: solubility in ethanol): 1000 to 2500 µg/mL (≈ 2280 to 5690 µM)
Solubility ([1]; ethyl acetate, organic solvent or mixture, read-out: solubility in ethyl acetate): < 1000 µg/mL
Solubility ([1]; methanol, organic solvent or mixture, read-out: solubility in methanol): 5000 to 12500 µg/mL (≈ 11400 to 28400 µM)
Solubility ([1]; methyl tert-butyl ether, organic solvent or mixture, read-out: solubility in methyl tert-butyl ether): < 1000 µg/mL
Solubility ([1]; n-heptane, organic solvent or mixture, read-out: solubility in n-heptane): < 1000 µg/mL
Solubility ([1]; tetrahydrofuran, organic solvent or mixture, read-out: solubility in tetrahydrofuran): 1000 to 2500 µg/mL (≈ 2280 to 5690 µM)
Solubility ([1]; toluene, organic solvent or mixture, read-out: solubility in toluene): < 1000 µg/mL
Solubility ([1]; water, read-out: solubility in water): < 1000 µg/mL
crystalline form recovered (XRD) ([2]; acetone, ethyl acetate, methanol or water, conversion not complete in methanol): converted to crystalline form 2
crystalline form recovered (XRD) ([2]; tetrahydrofuran (THF)): to crystalline form 3
Internal dissolution rate [3]: 0.022 mg/(min · cm^2)

Reference: patent US12209080B2, “Polymorphic forms of kinase inhibitor compound, pharmaceutical composition containing same, preparation method therefor and use thereof” (EQUINOX SCIENCES, LLC, priority 2016, dated 2025)
